Results taken from patent US5183743A, “Chromogenic dibenzoxazepinone and dibenzothiazepinone enzyme substrates” (Miles Inc., priority 1991, dated 1993).

How the values were obtained:
β-galactosidase = assay: enzymatic cleavage of substrate to (20) by β-galactosidase; assay type: biochemical; details: in the presence of β-galactosidase
Protocol: (§1) When dissolved in 50 mM phosphate buffer at pH 7.4 containing 5 mM magnesium chloride (MgCl2) compound (23)+(24) (mixture) had λmax of 454 nm (ε =22,000) and 344 nm (ε =14,000).

[1] = UV/visible absorption in 50 mM phosphate buffer pH 7.4 containing 5 mM MgCl2; assay type: physicochemical; details: 50 mM phosphate buffer pH 7.4, 5 mM MgCl2
Protocol: as §1

[2] = protonated vs deprotonated form; cited from earlier work

Compound | Km (β-galactosidase) | rate (Kcat) of cleavage to (20) (β-galactosidase) | ε at λmax 344 nm ([1]; 344 nm) | ε at λmax 454 nm ([1]; 454 nm) | λmax ([1]; long-wavelength maximum) | λmax ([1]; second maximum) | shift in absorption (λmax) between the protonated form and the deprotonated form [2]
8-β-D-Galactopyranosyloxy-11-methyl-11H-dibenz[b,e][1,4]oxazepin-1-one(23) and 2-β-D-galactopyranosyloxy-11-methyl-11H-dibenz[b,e][-1,4]oxazepin-8-one (24) [(23)+(24)] | 75 µM | 1.32×10^4 mol. min^-1 /mol. active site | 14,000 | 22,000 | 454 nm | 344 nm | –
CC1Oc2cc(O)ccc2N=C2C=CC(=O)C=C21 (stereo not shown) [(20)] | – | – | – | – | – | – | 122 nm
